Calls of active or inactive are those of the source. The calls are words filed in the database; no cut-off is given here.
Key:
[1] = biological target: T1, Serine/threonine-protein kinase PAK 4 (Homo sapiens, UniProt O96013); assay: Inhibition of PAK4 (unknown origin) by Z-LYTE biochemical assay
Target sequence in this assay (O96013 whole entry, the tested form may be a part): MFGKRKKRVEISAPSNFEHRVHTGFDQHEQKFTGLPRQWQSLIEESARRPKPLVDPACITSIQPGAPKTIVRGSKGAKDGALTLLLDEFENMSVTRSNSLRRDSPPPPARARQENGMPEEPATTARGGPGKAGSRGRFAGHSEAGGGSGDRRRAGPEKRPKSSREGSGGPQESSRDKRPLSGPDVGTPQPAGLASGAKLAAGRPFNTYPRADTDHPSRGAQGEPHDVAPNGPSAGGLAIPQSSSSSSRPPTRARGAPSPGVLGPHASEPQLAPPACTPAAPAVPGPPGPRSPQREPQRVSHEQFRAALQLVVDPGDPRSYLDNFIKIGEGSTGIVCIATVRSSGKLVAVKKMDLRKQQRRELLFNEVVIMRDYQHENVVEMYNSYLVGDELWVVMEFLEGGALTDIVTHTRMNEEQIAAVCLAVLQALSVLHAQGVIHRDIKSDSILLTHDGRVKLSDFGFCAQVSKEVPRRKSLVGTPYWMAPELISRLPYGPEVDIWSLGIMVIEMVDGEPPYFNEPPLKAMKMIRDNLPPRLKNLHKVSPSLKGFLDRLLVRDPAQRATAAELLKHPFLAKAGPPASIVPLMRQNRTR

[2] = biological target: Serine/threonine-protein kinase PAK 1 (Homo sapiens, UniProt Q13153); assay: Inhibition of TEV protease fused 6His-tagged PAK1 KD (249 to 545 residues) (unknown origin) expressed in Sf21 cells by Z-LYTE biochemical assay
Sequence of Serine/threonine-protein kinase PAK 1 (Homo sapiens, UniProt Q13153) (Q13153 whole entry, the tested form may be a part): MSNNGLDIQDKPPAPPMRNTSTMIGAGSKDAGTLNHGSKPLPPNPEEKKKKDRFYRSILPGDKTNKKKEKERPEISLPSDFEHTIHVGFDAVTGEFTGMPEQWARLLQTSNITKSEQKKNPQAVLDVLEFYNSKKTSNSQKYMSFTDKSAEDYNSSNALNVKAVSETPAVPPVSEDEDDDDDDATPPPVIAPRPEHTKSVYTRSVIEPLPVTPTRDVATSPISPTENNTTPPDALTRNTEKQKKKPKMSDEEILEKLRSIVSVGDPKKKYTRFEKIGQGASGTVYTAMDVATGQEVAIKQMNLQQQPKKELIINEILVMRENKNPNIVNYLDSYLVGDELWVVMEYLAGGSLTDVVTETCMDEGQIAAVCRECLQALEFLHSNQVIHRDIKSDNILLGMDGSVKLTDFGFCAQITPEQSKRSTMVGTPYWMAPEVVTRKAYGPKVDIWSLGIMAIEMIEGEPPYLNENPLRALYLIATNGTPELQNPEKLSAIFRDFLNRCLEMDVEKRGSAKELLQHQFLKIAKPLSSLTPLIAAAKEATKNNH

[3] = Induction of cell cycle arrest in mouse SC4 [Mouse schwannoma] cells assessed as accumulation of cells at G2/M phase at 1 uM measured upto 96 hrs by propidium iodide staining based flow cytometeric analysis (reference value: 22%); type: functional
[4] = biological target: Serine/threonine-protein kinase PAK 6 (Homo sapiens) (UniProt Q9NQU5); conditions: dose 100.0 nM
Sequence of Serine/threonine-protein kinase PAK 6 (Homo sapiens) (Q9NQU5 whole entry, looked up): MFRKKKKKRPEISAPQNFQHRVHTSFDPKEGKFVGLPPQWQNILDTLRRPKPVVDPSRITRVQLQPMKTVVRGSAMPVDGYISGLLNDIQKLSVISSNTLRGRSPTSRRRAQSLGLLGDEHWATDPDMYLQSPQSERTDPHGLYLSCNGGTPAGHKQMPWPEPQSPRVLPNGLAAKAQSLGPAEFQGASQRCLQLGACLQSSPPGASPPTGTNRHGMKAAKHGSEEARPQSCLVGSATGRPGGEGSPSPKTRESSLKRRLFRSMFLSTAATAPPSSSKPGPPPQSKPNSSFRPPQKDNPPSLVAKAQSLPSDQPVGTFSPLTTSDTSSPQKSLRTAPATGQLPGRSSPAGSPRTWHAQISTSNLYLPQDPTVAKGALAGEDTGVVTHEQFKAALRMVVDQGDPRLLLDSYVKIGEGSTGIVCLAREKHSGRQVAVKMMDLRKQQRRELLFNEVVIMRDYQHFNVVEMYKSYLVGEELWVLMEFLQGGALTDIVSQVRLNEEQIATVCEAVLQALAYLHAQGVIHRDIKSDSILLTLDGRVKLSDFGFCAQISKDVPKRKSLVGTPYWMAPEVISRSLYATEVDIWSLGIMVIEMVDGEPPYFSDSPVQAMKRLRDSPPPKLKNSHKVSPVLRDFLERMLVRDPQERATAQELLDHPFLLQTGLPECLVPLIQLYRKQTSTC
Description: Inhibition of PAK6 (unknown origin) at 100 nM by Z-LYTE biochemical assay relative to control

SC4 [5] = assay: Antitumor activity against Nf2 knockout mouse SC4 [Mouse schwannoma] cells harbouring pLuc-mCherry implanted in NOD/SCID mouse assessed as reduction in tumor growth at 100 mg/kg, po qd administered for 14 days by bioluminescence imaging analysis; type: functional, organism-based; conditions: time 14.0 day
[6] = biological target: T1, Serine/threonine-protein kinase PAK 4; conditions: dose 100.0 nM
Target sequence in this assay (O96013 whole entry, looked up, the tested form may be a part): as the sequence (O96013 whole entry, the tested form may be a part) above
Description: Inhibition of PAK4 (unknown origin) at 100 nM by Z-LYTE biochemical assay relative to control

[7] = Induction of cell cycle arrest in mouse SC4 [Mouse schwannoma] cells assessed as accumulation of cells at S phase at 1 uM measured upto 96 hrs by propidium iodide staining based flow cytometeric analysis (reference value: 27%); type: functional
SC4 [8] = assay: Downregulation of CSF1R expression in mouse SC4 [Mouse schwannoma] cells by Western blotting analysis; type: functional, cell-based
SC4 [9] = assay: Downregulation of RET expression in mouse SC4 [Mouse schwannoma] cells by Western blotting analysis; type: functional, cell-based
[10] = biological target: Serine/threonine-protein kinase PAK 2 (Homo sapiens) (UniProt Q13177); conditions: dose 100.0 nM
Sequence of Serine/threonine-protein kinase PAK 2 (Homo sapiens) (Q13177 whole entry): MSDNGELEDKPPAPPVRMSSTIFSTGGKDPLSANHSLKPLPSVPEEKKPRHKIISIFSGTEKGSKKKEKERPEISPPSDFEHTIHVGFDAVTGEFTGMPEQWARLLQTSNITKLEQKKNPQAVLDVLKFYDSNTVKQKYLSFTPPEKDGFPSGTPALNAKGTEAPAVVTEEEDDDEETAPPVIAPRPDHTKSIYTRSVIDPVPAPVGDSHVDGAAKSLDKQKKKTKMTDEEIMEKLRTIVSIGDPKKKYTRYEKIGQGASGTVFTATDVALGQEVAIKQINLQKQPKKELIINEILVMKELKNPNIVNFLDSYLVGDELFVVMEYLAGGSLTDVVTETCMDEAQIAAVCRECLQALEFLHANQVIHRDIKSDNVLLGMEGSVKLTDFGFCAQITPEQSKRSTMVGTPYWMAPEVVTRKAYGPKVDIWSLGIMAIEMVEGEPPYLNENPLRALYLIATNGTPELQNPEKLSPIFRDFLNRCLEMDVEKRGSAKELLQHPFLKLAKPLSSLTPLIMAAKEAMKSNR
Description: Inhibition of PAK2 (unknown origin) at 100 nM by Z-LYTE biochemical assay relative to control

[11] = biological target: Tyrosine-protein kinase Yes (Homo sapiens) (UniProt P07947); conditions: dose 100.0 nM
Sequence of Tyrosine-protein kinase Yes (Homo sapiens) (P07947 2-543 limits assumed): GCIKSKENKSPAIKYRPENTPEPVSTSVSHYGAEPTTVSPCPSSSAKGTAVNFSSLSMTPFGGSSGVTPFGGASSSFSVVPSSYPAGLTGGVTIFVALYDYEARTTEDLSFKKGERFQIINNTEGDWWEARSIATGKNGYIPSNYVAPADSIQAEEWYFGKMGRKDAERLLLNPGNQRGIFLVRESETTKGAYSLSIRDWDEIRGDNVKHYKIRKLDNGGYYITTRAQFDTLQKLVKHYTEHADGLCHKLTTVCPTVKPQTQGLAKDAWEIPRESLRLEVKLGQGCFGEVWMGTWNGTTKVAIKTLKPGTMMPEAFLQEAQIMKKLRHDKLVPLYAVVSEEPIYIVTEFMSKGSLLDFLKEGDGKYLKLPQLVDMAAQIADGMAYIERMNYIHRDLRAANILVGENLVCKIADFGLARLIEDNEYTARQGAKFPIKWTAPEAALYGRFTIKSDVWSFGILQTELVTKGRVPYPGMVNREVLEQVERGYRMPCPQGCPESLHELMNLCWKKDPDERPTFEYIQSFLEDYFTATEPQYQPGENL
Description: Inhibition of YES1 (unknown origin) at 100 nM by Z-LYTE biochemical assay relative to control

[12] = biological target: Serine/threonine-protein kinase PAK 5 (Homo sapiens) (UniProt Q9P286); conditions: dose 100.0 nM
Sequence of Serine/threonine-protein kinase PAK 5 (Homo sapiens) (Q9P286 whole entry, looked up): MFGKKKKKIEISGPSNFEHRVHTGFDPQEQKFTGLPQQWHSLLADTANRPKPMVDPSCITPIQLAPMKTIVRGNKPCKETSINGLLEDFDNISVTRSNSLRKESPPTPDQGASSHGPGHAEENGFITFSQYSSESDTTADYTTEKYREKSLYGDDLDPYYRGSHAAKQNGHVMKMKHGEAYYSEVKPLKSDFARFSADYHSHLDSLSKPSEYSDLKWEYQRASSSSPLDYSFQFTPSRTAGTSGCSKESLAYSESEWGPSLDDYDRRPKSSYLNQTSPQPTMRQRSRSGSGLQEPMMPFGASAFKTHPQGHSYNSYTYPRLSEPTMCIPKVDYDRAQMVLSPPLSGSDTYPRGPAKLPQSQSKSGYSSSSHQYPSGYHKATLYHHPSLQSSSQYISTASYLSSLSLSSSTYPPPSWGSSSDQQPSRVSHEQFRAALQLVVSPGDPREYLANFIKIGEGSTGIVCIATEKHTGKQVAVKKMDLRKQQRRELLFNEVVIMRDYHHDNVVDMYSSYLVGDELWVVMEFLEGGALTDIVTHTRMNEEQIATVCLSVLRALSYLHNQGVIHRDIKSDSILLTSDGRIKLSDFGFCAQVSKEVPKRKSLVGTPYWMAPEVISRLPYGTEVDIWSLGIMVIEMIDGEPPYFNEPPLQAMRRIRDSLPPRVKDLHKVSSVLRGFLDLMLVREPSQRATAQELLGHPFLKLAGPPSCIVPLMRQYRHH
Description: Inhibition of PAK7 (unknown origin) at 100 nM by Z-LYTE biochemical assay relative to control

[13] = Inhibition of PAK1 V342F mutant (unknown origin) in presence of ATP by KinaseGlo assay
SC4 [14] = assay: Induction of cell cycle arrest in mouse SC4 [Mouse schwannoma] cells assessed as accumulation of cells at sub-G1 phase at 1 uM measured upto 96 hrs by propidium iodide staining based flow cytometeric analysis; type: functional
SC4 [15] = assay: Downregulation of TEK1 expression in mouse SC4 [Mouse schwannoma] cells by Western blotting analysis; type: functional, cell-based
[16] = Inhibition of PAK1 V342Y mutant (unknown origin) in presence of ATP by KinaseGlo assay
[17] = biological target: Macrophage colony-stimulating factor 1 receptor (Homo sapiens) (UniProt P07333); conditions: dose 100.0 nM
Description: Inhibition of CSF1R (unknown origin) at 100 nM by Z-LYTE biochemical assay relative to control

[18] = Induction of cell cycle arrest in mouse SC4 [Mouse schwannoma] cells assessed as accumulation of cells at G1 phase at 1 uM measured upto 96 hrs by propidium iodide staining based flow cytometeric analysis (reference value: 50%); type: functional
[19] = biological target: Serine/threonine-protein kinase PAK 1 (Mus musculus, UniProt O88643)
Sequence of Serine/threonine-protein kinase PAK 1 (Mus musculus, UniProt O88643) (O88643 whole entry): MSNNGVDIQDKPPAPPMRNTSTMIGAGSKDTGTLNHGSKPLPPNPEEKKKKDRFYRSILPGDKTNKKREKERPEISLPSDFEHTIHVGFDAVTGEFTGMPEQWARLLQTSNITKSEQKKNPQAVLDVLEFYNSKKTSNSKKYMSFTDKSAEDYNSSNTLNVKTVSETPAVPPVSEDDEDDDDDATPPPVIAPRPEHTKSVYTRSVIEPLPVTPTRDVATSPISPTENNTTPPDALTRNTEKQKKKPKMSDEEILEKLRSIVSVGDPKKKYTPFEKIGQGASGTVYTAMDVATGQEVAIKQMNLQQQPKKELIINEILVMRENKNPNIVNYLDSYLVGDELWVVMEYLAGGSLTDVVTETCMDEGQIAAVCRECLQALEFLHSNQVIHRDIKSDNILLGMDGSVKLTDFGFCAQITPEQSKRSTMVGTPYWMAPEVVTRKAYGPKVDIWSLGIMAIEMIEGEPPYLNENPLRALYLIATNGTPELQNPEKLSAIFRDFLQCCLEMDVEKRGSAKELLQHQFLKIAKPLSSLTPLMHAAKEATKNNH
Description: Inhibition of PAK1 in mouse SC4 [Mouse schwannoma] cells assessed as reduction in p-PAK1 at serine 144 residue at 1 to 5 uM incubated for 2 hrs by Western blotting analysis

[20] = biological target: Angiopoietin-1 receptor (Homo sapiens) (UniProt Q02763); conditions: dose 100.0 nM
Description: Inhibition of TEK (unknown origin) at 100 nM by Z-LYTE biochemical assay relative to control

SC4 [21] = assay: Antitumor activity against Nf2 knockout mouse SC4 [Mouse schwannoma] cells harbouring pLuc-mCherry implanted in NOD/SCID mouse assessed as reduction in tumor weight at 100 mg/kg, po qd administered for 14 days; type: functional, organism-based; conditions: time 14.0 day
[22] = biological target: Proto-oncogene tyrosine-protein kinase receptor Ret (Homo sapiens) (UniProt P07949); conditions: dose 100.0 nM
Description: Inhibition of RET (unknown origin) at 100 nM by Z-LYTE biochemical assay relative to control

SC4 [23] = assay: Downregulation of YES1 expression in mouse SC4 [Mouse schwannoma] cells by Western blotting analysis; type: functional, cell-based
SC4 [24] = assay: Antiproliferative activity against mouse SC4 [Mouse schwannoma] cells assessed as reduction in cell viability at 1 uM measured upto 96 hrs by coulter counter analysis; type: functional, cell-based

For `CCn1c(=O)c(-c2ccc(Cl)cc2Cl)cc2cnc(Nc3ccc(N4CCN(C)CC4)cc3)nc21`, the IC50 [1] was 559 nM and the IC50 [2] was 20 nM.

In the case of `CCn1c(=O)c(-c2ccc(-c3cncs3)cc2Cl)cc2cnc(Nc3ccc(N4CCN(C)CC4)cc3)nc21.Cl`, the Activity [3] is reported as 11%, the inhibition [4] is reported as 23% and the Activity (SC4 [5]) is reported as “Active”. It also gave an inhibition [6] of 0%, an IC50 [1] greater than 10000 nM and an Activity [7] of 12%. The Activity (SC4 [8]) was “Active”, the Activity (SC4 [9]) was “Active” and the inhibition [10] was 93%. The inhibition [11] was 87%, the inhibition [12] was 8% and the IC50 [13] was greater than 3000 nM. The Activity (SC4 [14]) was “inactive”, the Activity (SC4 [15]) was “Active” and the IC50 [16] was greater than 2000 nM. The inhibition [17] was 91%, the Activity [18] was 74% and the IC50 [19] was 70 nM. For the same molecule, the inhibition [20] was 87%, the Activity (SC4 [21]) was “Active” and the inhibition [22] was 82%. For the same molecule, the Activity (SC4 [23]) was “Active” and the Activity (SC4 [24]) was “Active”.

In the case of `Cc1nc(Nc2n[nH]c3c2CN(C(=O)N[C@H](CN(C)C)c2ccccc2)C3(C)C)c2sccc2n1`, the Activity (SC4 [24]) is reported as “Active”.

`CN1CCN(c2ccc(Nc3ncc4ccc(=O)n(C5CCCC5)c4n3)cc2)CC1` gave an IC50 [1] of 580 nM and an IC50 [2] of 483 nM.
